Tests used:
[1] = tested on: MAPK, EGFR, AKT, S6, caspase-3 signaling in NCI-H358 and MIA PaCa-2; assay: Western blots of cellular signaling nodes; type: cell-based, human; settings: 0.1 μM; both lines
Source text: This shifted species accumulated with increasing time and dose and was consistent with downstream inhibition of the MAPK pathway (i.e. p-MEK1/2 and p-ERK1/2) in both cell lines (FIGS. 41A and 41B).

[2] = tested on: ERK1/2 phosphorylation in MIA PaCa-2 T2 tumors; assay: Tumor pharmacodynamic assay (p-ERK, MSD immunoassay); type: in vivo, mouse
[3] = Plasma and tumor concentrations of AMG 510 (LC-MS/MS); type: in vivo, mouse; settings: tumor-bearing mice; single oral dose 10 mg/kg
Experimental: Tumor tissue homogenates were prepared by adding water to tissue (4:1 mL:g) using tungsten carbide beads in a TissueLyzer (Qiagen). To 20 μL of sample (plasma or tumor tissue homogenate), 100 μL acetonitrile containing IS (200 ng/mL tolbutamide) was added, the sample was vortexed for 10 min, centrifuged at 3500 g for 10 min, and 90 μL of supernatant was collected. To the collected supernatant 100 μL of water (containing 0.1% formic acid) was added, and 5 μL of the resulting solution was injected onto the LC-MS/MS system. Chromatographic separations were achieved using a Phenomenex Kinetex C18 50×2.1 mm, 2.7 μm, maintained at 50° C., using 0.1% formic acid in H2O (mobile phase A) and 0.1% formic acid in acetonitrile (mobile phase B). […] Peak areas were integrated using Analyst® (Sciex).

## C=CC(=O)N1CCN(c2nc(=O)n(-c3c(C)ccnc3C(C)C)c3nc(-c4c(O)cccc4F)c(F)cc23)[C@@H](C)C1 (atropisomer, axis not shown) [AMG 510, 6-fluoro-7-(2-fluoro-6-hydroxyphenyl)-1-(4-methyl-2-(2-propanyl)-3-pyridinyl)-4-((2S)-2-methyl-4-(2-propenoyl)-1-piperazinyl)pyrido[2,3-d]pyrimidin-2(1H)-one]
[1]
  duration of effects on MAPK and EGFR: > 24 h
  onset of effects on MAPK and EGFR: < 2 h
  time at which p-S6 and caspase-cleavage effects emerged: 8 to 16 h
[2]; Mus musculus, MIA PaCa-2 T2, 100 mg/kg oral single dose, 2 hours post-treatment, read-out: inhibition of p-ERK, reduction compared to control
  inhibition at 100 mg/kg: 69%
[2]; single dose 10 mg/kg
  time of maximal inhibition of p-ERK post-treatment: 2 to 4 h
[3]
  time of peak plasma and tumor exposure: 0.5 h
